Measurements from publication PMC10295897, “A Novel MDM2-Binding Chalcone Induces Apoptosis of Oral Squamous Cell Carcinoma” (Biomedicines, 2023).
Where two headings read alike, the source gives them in different places.

How the values were obtained:
SCC9 cells = test: MTT cell viability assay, SCC9 oral cancer cells; type: cell-based, human; conditions: for IC50: MTT; for SCC9 S.I.: selective index = IC50 HGF / IC50 SCC9; for dose-dependent cytotoxicity: SCC9, MTT
Experimental: (§1) Human SCC-4, SCC-9, and SCC-25 cells derived from a human oral tongue SCC (squamous cell carcinoma) were obtained from the ATCC (CRL-1624, CRL-1629, and CRL-1628, respectively) and maintained in 1:1 DMEM/F12 (Dulbecco’s modified Eagle medium and Ham’s F12 medium; Gibco (Thermo Fisher, Waltham, MA, USA)) supplemented with 10% (v/v) FBS (fetal bovine serum; Invitrogen, Thermo Fisher, Waltham, MA, USA) and 400 ng/mL hydrocortisone (Sigma-Aldrich Co., St. Louis, MO, USA). Primary normal human gingival fibroblasts were obtained from the ATCC (PCS-201-018; HGF) and maintained in DMEM supplemented with 10% (v/v) FBS and were used in a maximum of six passages. The cells were grown in a humidified environment containing 5% CO2 at 37 °C. For all biological experiments, the compounds and control nutlin 3a were solubilized in 100% DMSO (all Sigma-Aldrich) to a final concentration of 10 mM. Carboplatin stock was prepared in water (Fauldcarbo®; LibbsFarmacêutica, São Paulo, SP, Brazil) and was used as a standard anticancer compound.
(§2) The viability of SCC cell lines, HT-29, HCT-116, HEP2G and primary human fibroblast cells was evaluated using the MTT assay as in [26]. Briefly, the cells were grown in duplicates in 96-well plates (5 × 10^3 cells/well) until confluence. Then, the medium was removed, fresh medium was added, and the cells were returned to the incubator in the presence of different compounds. DMSO at the same concentrations was used as a 100% cell viability control. After 48 h, the cells were incubated with 5 mg/mL MTT reagent (3-(4,5-dimethyl-2-thiazolyl)-2,5-diphenyl-2-H-tetrazolium bromide) (Sigma-Aldrich Co., St. Louis, MO, USA) for 3.5 h. After that, formazan crystals were dissolved in MTT solvent solution (DMSO/methanol 1:1 v/v), and the absorbance at 560 nm was evaluated using an EPOCH microplate spectrophotometer (BioTek Instruments, Winooski, VT, USA) with the background absorbance at 670 nm subtracted. Each of the six compounds was tested at six or seven different concentrations, ranging from 0.3 µM to 200 µM in cancer cell lines (SCC-4, SCC-9 and SCC-25) and 0.3 µM to 200 µM in primary normal human gingival fibroblasts. Controls (carboplatin, nutlin 3a) were tested at six or seven different concentrations ranging from 0.05 µM to 1000 µM in cancer cells and normal cells, depending on the compound.
(§3) The data are presented as means ± SD. IC values for the MTT assays were obtained by nonlinear regression using the […] 5.0 program (Intuitive Software for Science, San Diego, CA, USA) from at least three independent experiments. A dose–response (inhibitor) vs. response curve using the least squares method was used to determine the IC50, SD, and R^2 of the data. The selectivity index was calculated as SI = IC50 of the compound in normal oral fibroblast cells/IC50 of the same compound for each cancer cell line (SCC-4, SCC-9, SCC-25, HCT-116, HT29 and HEP2G), and the mean was calculated when indicated.
Initially, the six chalcones (1a–f) were submitted to the MTT assay to evaluate their cytotoxicity. The assay was performed using the oral cancer cell line SCC9, and the results were analyzed by a non-linear regression curve to determine the value of the half maximal inhibitory concentration (IC50). As controls, known chemotherapeutic agents were used, namely carboplatin, routinely used in the treatment of oral cancer, and doxorubicin, widely used for other types of cancers.

SCC25 cells = test: MTT cell viability assay, SCC25 cells; type: cell-based, human; conditions: for IC50: 48 h, MTT; for SCC25 S.I.: selective index = IC50 HGF / IC50 SCC25
Experimental: as §1, §2, §3

SCC4 cells = test: MTT cell viability assay, SCC4 cells; type: cell-based, human; conditions: for IC50: 48 h, MTT; for SCC4 S.I.: selective index = IC50 HGF / IC50 SCC4
Experimental: as §1, §2, §3

[1] = test system: Primary Gingival Fibroblast (HGF); test: MTT cell viability assay, primary normal gingival fibroblasts; type: cell-based, human; conditions: 48 h
Experimental: as §1, §2, §3

[2] = test system: Oral Tumor Cells (SCC9, SCC25, SCC4); test: MTT assay, average over oral tumor cells; type: cell-based, human; conditions: for IC50: mean of SCC9, SCC25, SCC4; for Average S.I.: IC50 of normal primary fibroblasts / average IC50 of tumor cells
Experimental: as §2, §3

HT29 (adenocarcinoma) = test: MTT cell viability assay, HT29; type: cell-based
Experimental: as §2, §3

[3] = Solubility observed during in vitro testing; type: physicochemical; conditions: in vitro cytotoxicity testing
[4] = Homo sapiens, SCC-9, 48 h, 48 h, read-out: SCC9 IC50
[5] = Homo sapiens, SCC-9, 48 h, SCC9, 48 h, read-out: IC50

Row | Structure (SMILES) | IC50 (SCC9 cells; [5]) [µM] | melting point [°C] | SCC9 S.I. (SCC9 cells) | SCC25 S.I. (SCC25 cells) | SCC4 S.I. (SCC4 cells) | Average S.I. [2] | solubility (in words) [3] | also measured
1 | COc1cccc2c1C(=O)c1c(O)c3c(c(O)c1C2=O)C[C@@](O)(C(=O)CO)C[C@@H]3O[C@H]1C[C@H](N)[C@H](O)[C@H](C)O1 [Doxorubicin, doxorubicin, reference compound] | 2.99 | – | 1.16 | 3.86 | 6.09 | 2.34 | – | IC50 (SCC9 cells; [4]): 2.99 µM; IC50 (SCC25 cells; Homo sapiens, SCC-25): 0.9 µM; IC50 (SCC4 cells; Homo sapiens, SCC-4): 0.57 µM; IC50 ([1]; Homo sapiens, Fibroblast): 3.47 µM; IC50 ([2]; Homo sapiens): 1.49 µM
2 | COc1ccc(C2=N[C@@H](c3ccc(Cl)cc3)[C@@H](c3ccc(Cl)cc3)N2C(=O)N2CCNC(=O)C2)c(OC(C)C)c1 [nutlin-3a, reference compound] | – | – | 2.72 | – | – | – | – | IC50 (SCC9 cells; 48 h, read-out: SCC9 IC50): 18 µM; IC50 [1]: 49.1 µM; IC50 (HT29 (adenocarcinoma); 48 h, MTT): 6.79 µM; HT29 S.I. (HT29 (adenocarcinoma); IC50 HGF / IC50 HT29): 7.22
3 | N.N.O=C([O-])C1(C(=O)[O-])CCC1.[Pt+2] [Carboplatin, carboplatin, reference compound] | – | – | 2.15 | 1.75 | 2.26 | 2.03 | – | IC50 (SCC9 cells; 48 h, read-out: SCC9 IC50): 156 µM; IC50 (SCC9 cells; SCC9, 48 h, read-out: IC50): 156 µM; IC50 (SCC25 cells): 191 µM; IC50 (SCC4 cells): 148 µM; IC50 [1]: 335 µM; IC50 [2]: 165 µM

Further lines, with some results ahead:

Row | IC50 (SCC9 cells; [5]) [µM] | melting point [°C] | Structure (SMILES) | SCC9 S.I. (SCC9 cells) | SCC25 S.I. (SCC25 cells) | SCC4 S.I. (SCC4 cells) | Average S.I. [2] | solubility (in words) [3] | also measured
4 | – | 220 to 222 | CCOC(=O)c1ccc(-n2cc(/C=C/C(=O)c3ccccc3N)nn2)cc1 [1e, Ethyl(E)-4-(4-(3-(2-aminophenyl)-3-oxoprop-1-en-1-yl)-1H-1,2,3-triazol-1-yl)benzoate] | – | – | – | – | – | dose-dependent cytotoxicity (SCC9 cells): all presented dose-dependent cytotoxicity, except
5 | – | 253 to 255 | Nc1ccccc1C(=O)/C=C/c1cn(-c2ccc([N+](=O)[O-])cc2)nn1 [1d, (E)-1-(2-Aminophenyl)-3-(1-(4-nitrophenyl)-1H-1,2,3-triazol-4-yl)prop-2-en-1-one] | – | – | – | – | – | dose-dependent cytotoxicity (SCC9 cells): all presented dose-dependent cytotoxicity, except
6 | 9.95 | 128 to 130 | Nc1ccccc1C(=O)/C=C/c1cnn(-c2ccccc2)n1 [1a, (E)-1-(2-Aminophenyl)-3-(2-phenyl-2H-1,2,3-triazol-4-yl)prop-2-en-1-one] | – | – | – | – | formed highly insoluble well-structured crystals at low concentrations | –
7 | 12.7 | 183 to 185 | Nc1ccccc1C(=O)/C=C/c1cn(-c2ccccc2)nn1 [1b, (E)-1-(2-Aminophenyl)-3-(1-phenyl-1H-1,2,3-triazol-4-yl)prop-2-en-1-one] | 2.80 | 2.85 | 2.83 | 2.82 | highly soluble | IC50 (SCC9 cells; [4]): 12.7 µM; IC50 (SCC25 cells; Homo sapiens, SCC-25): 12.5 µM; IC50 (SCC4 cells; Homo sapiens, SCC-4): 12.6 µM; IC50 ([1]; Homo sapiens, Fibroblast): 35.7 µM; IC50 ([2]; Homo sapiens): 12.6 µM
8 | 9.32 | 174 to 176 | COc1ccc(-n2cc(/C=C/C(=O)c3ccccc3N)nn2)cc1 [1c, (E)-1-(2-Aminophenyl)-3-(1-(4-methoxyphenyl)-1H-1,2,3-triazol-4-yl)prop-2-en-1-one] | – | – | – | – | formed highly insoluble well-structured crystals at low concentrations | –
